Reference: the supplement of paper PMC10307832

Tests used:
Test in all cases: relative viability (nuclei count vs DMSO), 5 days (fraction); higher = more cells survive
[1] = compound: CN(C)CC1=CC(=CC=C1)N=C(C2=CC=CC=C2)C3=C(NC4=C3C=CC(=C4)C(=O)N(C)C)O
Summary of the method: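 Cells of lung cancer lines were placed in 1536-well plates and kept overnight at 37 °C. Pinning then delivered five library-drug doses (not always all listed), spaced by √10, onto plates anchored with vehicle, and the cells were left 5 days without changing medium. One step fixed, permeabilised and stained them with Hoechst, and MetaXpress counted nuclei in 4× images. Viability, as a median over plates, is treated-well nuclei divided by vehicle-well nuclei, with acceptance only at control CV below 25% and at least one doubling.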

[2] = compound: CN(C)CC1=CC(=CC=C1)N=C(C2=CC=CC=C2)C3=C(NC4=C3C=CC(=C4)C(=O)N(C)C)O + CC1(C)CCC(c2ccc(Cl)cc2)=C(CN2CCN(c3ccc(C(=O)NS(=O)(=O)c4ccc(N[C@H](CCN5CCOCC5)CSc5ccccc5)c(S(=O)(=O)C(F)(F)F)c4)cc3)CC2)C1 [Navitoclax] (partner 0.5 µM)
Summary of the method: (§1)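 Values are medians from duplicate plates. Each reflects relative viability, defined as the nuclei count of treated wells over that of vehicle wells. Lung cancer cell lines in 1536-well plates were pin-tool dosed one day after seeding with one drug alone or with a fixed anchor-drug dose plus five library-drug doses (not always all listed) in √10 steps, then fixed, stained and imaged at 4× after 5 days.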

[3] = compound: CN(C)CC1=CC(=CC=C1)N=C(C2=CC=CC=C2)C3=C(NC4=C3C=CC(=C4)C(=O)N(C)C)O + COc1cc2c(Oc3ccc(NC(=O)C4(C(=O)Nc5ccc(F)cc5)CC4)cc3F)ccnc2cc1OCCCN1CCOCC1 [Foretinib] (partner 0.25 µM)
Summary of the method: as §1

[4] = compound: CN(C)CC1=CC(=CC=C1)N=C(C2=CC=CC=C2)C3=C(NC4=C3C=CC(=C4)C(=O)N(C)C)O + CS(=O)(=O)CCNCc1ccc(-c2ccc3ncnc(Nc4ccc(OCc5cccc(F)c5)c(Cl)c4)c3c2)o1 [Lapatinib] (partner 2 µM)
Summary of the method: as §1

[5] = compound: CN(C)CC1=CC(=CC=C1)N=C(C2=CC=CC=C2)C3=C(NC4=C3C=CC(=C4)C(=O)N(C)C)O + CS(=O)(=O)N1CCN(Cc2cc3nc(-c4cccc5[nH]ncc45)nc(N4CCOCC4)c3s2)CC1 [Pictilisib] (partner 1 µM)
Summary of the method: as §1

[6] = compound: CN(C)CC1=CC(=CC=C1)N=C(C2=CC=CC=C2)C3=C(NC4=C3C=CC(=C4)C(=O)N(C)C)O + C[C@@H](Oc1cc(-c2cnn(C3CCNCC3)c2)cnc1N)c1c(Cl)ccc(F)c1Cl [Crizotinib] (partner 1 µM)
Summary of the method: as §1

[7] = compound: CN(C)CC1=CC(=CC=C1)N=C(C2=CC=CC=C2)C3=C(NC4=C3C=CC(=C4)C(=O)N(C)C)O + C[C@]1(O)C[C@@H](c2nc(-c3ccc4ccc(-c5ccccc5)nc4c3)c3c(N)nccn32)C1 [Linsitinib] (partner 1 µM)
Summary of the method: as §1

[8] = compound: CN(C)CC1=CC(=CC=C1)N=C(C2=CC=CC=C2)C3=C(NC4=C3C=CC(=C4)C(=O)N(C)C)O + Cc1nc(NC(=O)N2CCC[C@H]2C(N)=O)sc1-c1ccnc(C(C)(C)C(F)(F)F)c1 [Alpelisib] (partner 2 µM)
Summary of the method: as §1

[9] = compound: CN(C)CC1=CC(=CC=C1)N=C(C2=CC=CC=C2)C3=C(NC4=C3C=CC(=C4)C(=O)N(C)C)O + N=C(N)NC(=N)NCCc1ccccc1 [Phenformin] (partner 250 µM)
Summary of the method: as §1

[10] = compound: CN(C)CC1=CC(=CC=C1)N=C(C2=CC=CC=C2)C3=C(NC4=C3C=CC(=C4)C(=O)N(C)C)O + Nc1ncn([C@H]2C[C@H](O)[C@@H](CO)O2)c(=O)n1 [Decitabine] (partner 2 µM)
Summary of the method: as §1

[11] = compound: CN(C)CC1=CC(=CC=C1)N=C(C2=CC=CC=C2)C3=C(NC4=C3C=CC(=C4)C(=O)N(C)C)O + O=C(c1cc(Cc2n[nH]c(=O)c3ccccc23)ccc1F)N1CCN(C(=O)C2CC2)CC1 [Olaparib] (partner 8 µM)
Summary of the method: as §1

[12] = compound: CN(C)CC1=CC(=CC=C1)N=C(C2=CC=CC=C2)C3=C(NC4=C3C=CC(=C4)C(=O)N(C)C)O + CC(C)C[C@H](NC(=O)[C@H](Cc1ccccc1)NC(=O)c1cnccn1)B(O)O [Bortezomib] (partner 0.002 µM)
Summary of the method: as §1

[13] = compound: CN(C)CC1=CC(=CC=C1)N=C(C2=CC=CC=C2)C3=C(NC4=C3C=CC(=C4)C(=O)N(C)C)O + O=C(CCCCCCC(=O)Nc1ccccc1)NO [Vorinostat] (partner 1 µM)
Summary of the method: as §1

A549
relative viability ([1]; 0.08 µM): 1.01
relative viability ([1]; 0.253 µM): 0.991
relative viability ([1]; 0.8 µM): 1.01
relative viability ([1]; 2.53 µM): 0.929
relative viability ([1]; 8 µM): 0.901
relative viability ([2]; first compound 0.08 µM): 1.23
relative viability ([2]; first compound 0.253 µM): 1.24
relative viability ([2]; first compound 0.8 µM): 1.19
relative viability ([2]; first compound 2.53 µM): 1.2
relative viability ([2]; first compound 8 µM): 1.2
relative viability ([3]; first compound 0.08 µM): 0.988
relative viability ([3]; first compound 0.253 µM): 0.927
relative viability ([3]; first compound 0.8 µM): 0.948
relative viability ([3]; first compound 2.53 µM): 0.899
relative viability ([3]; first compound 8 µM): 1.02
relative viability ([4]; first compound 0.08 µM): 0.962
relative viability ([4]; first compound 0.253 µM): 1.01
relative viability ([4]; first compound 0.8 µM): 1.02
relative viability ([4]; first compound 2.53 µM): 0.945
relative viability ([4]; first compound 8 µM): 0.934
relative viability ([5]; first compound 0.08 µM): 0.525
relative viability ([5]; first compound 0.253 µM): 0.509
relative viability ([5]; first compound 0.8 µM): 0.448
relative viability ([5]; first compound 2.53 µM): 0.438
relative viability ([5]; first compound 8 µM): 0.384
relative viability ([6]; first compound 0.08 µM): 0.847
relative viability ([6]; first compound 0.253 µM): 0.683
relative viability ([6]; first compound 0.8 µM): 0.818
relative viability ([6]; first compound 2.53 µM): 0.686
relative viability ([6]; first compound 8 µM): 0.731
relative viability ([7]; first compound 0.08 µM): 0.595
relative viability ([7]; first compound 0.253 µM): 0.575
relative viability ([7]; first compound 0.8 µM): 0.518
relative viability ([7]; first compound 2.53 µM): 0.544
relative viability ([7]; first compound 8 µM): 0.475
relative viability ([8]; first compound 0.08 µM): 0.77
relative viability ([8]; first compound 0.253 µM): 0.921
relative viability ([8]; first compound 0.8 µM): 0.883
relative viability ([8]; first compound 2.53 µM): 0.711
relative viability ([8]; first compound 8 µM): 0.592
relative viability ([9]; first compound 0.08 µM): 0.202
relative viability ([9]; first compound 0.253 µM): 0.157
relative viability ([9]; first compound 0.8 µM): 0.124
relative viability ([9]; first compound 2.53 µM): 0.0946
relative viability ([9]; first compound 8 µM): 0.16
relative viability ([10]; first compound 0.253 µM): 0.286
relative viability ([10]; first compound 0.8 µM): 0.27
relative viability ([10]; first compound 2.53 µM): 0.223
relative viability ([10]; first compound 8 µM): 0.246
relative viability ([11]; first compound 0.08 µM): 0.294
relative viability ([11]; first compound 0.253 µM): 0.372
relative viability ([11]; first compound 0.8 µM): 0.401
relative viability ([11]; first compound 2.53 µM): 0.148
relative viability ([11]; first compound 8 µM): 0.406

IA-LM
relative viability ([1]; 0.08 µM): 0.961
relative viability ([1]; 0.253 µM): 0.871
relative viability ([1]; 0.8 µM): 1.03
relative viability ([1]; 2.53 µM): 1.07
relative viability ([1]; 8 µM): 1.13
relative viability ([12]; first compound 0.253 µM): 0.876
relative viability ([12]; first compound 0.8 µM): 1.12
relative viability ([12]; first compound 2.53 µM): 1.06
relative viability ([12]; first compound 8 µM): 1.11
relative viability ([2]; first compound 0.253 µM): 0.848
relative viability ([2]; first compound 0.8 µM): 0.766
relative viability ([2]; first compound 2.53 µM): 0.915
relative viability ([2]; first compound 8 µM): 1.02
relative viability ([3]; first compound 0.08 µM): 1.16
relative viability ([3]; first compound 0.253 µM): 1.19
relative viability ([3]; first compound 0.8 µM): 1.3
relative viability ([3]; first compound 2.53 µM): 1.18
relative viability ([3]; first compound 8 µM): 1.32
relative viability ([4]; first compound 0.08 µM): 0.781
relative viability ([4]; first compound 0.253 µM): 0.916
relative viability ([4]; first compound 0.8 µM): 0.872
relative viability ([4]; first compound 2.53 µM): 0.948
relative viability ([4]; first compound 8 µM): 1.07
relative viability ([5]; first compound 0.08 µM): 0.361
relative viability ([5]; first compound 0.253 µM): 0.463
relative viability ([5]; first compound 0.8 µM): 0.342
relative viability ([5]; first compound 2.53 µM): 0.389
relative viability ([5]; first compound 8 µM): 0.579
relative viability ([6]; first compound 0.08 µM): 0.937
relative viability ([6]; first compound 0.253 µM): 0.797
relative viability ([6]; first compound 0.8 µM): 0.906
relative viability ([6]; first compound 2.53 µM): 0.926
relative viability ([6]; first compound 8 µM): 1.04
relative viability ([7]; first compound 0.08 µM): 0.666
relative viability ([7]; first compound 0.253 µM): 0.645
relative viability ([7]; first compound 0.8 µM): 0.773
relative viability ([7]; first compound 2.53 µM): 0.767
relative viability ([7]; first compound 8 µM): 0.544
relative viability ([8]; first compound 0.253 µM): 0.806
relative viability ([8]; first compound 0.8 µM): 0.942
relative viability ([8]; first compound 2.53 µM): 0.88
relative viability ([8]; first compound 8 µM): 1.03
relative viability ([13]; first compound 0.08 µM): 0.911
relative viability ([13]; first compound 0.253 µM): 0.848
relative viability ([13]; first compound 0.8 µM): 0.903
relative viability ([13]; first compound 2.53 µM): 0.958
relative viability ([13]; first compound 8 µM): 1.02
relative viability ([11]; first compound 0.08 µM): 0.941
relative viability ([11]; first compound 0.253 µM): 0.793
relative viability ([11]; first compound 0.8 µM): 1.02
relative viability ([11]; first compound 2.53 µM): 0.957
relative viability ([11]; first compound 8 µM): 0.962
